Experimental data from paper PMC9558223, “Staphylococcus aureus is able to generate resistance to novel lipoglycopeptide antibiotic gausemycin A” (Frontiers in Microbiology, 2022).
In brackets after ≈: the same amount, converted by molar mass. Where two headings read alike, the source gives them in different places. Where no end group is shown, it is not given here.

Columns and labels:
S. aureus 5812R [1] = assay: microbe, parasite or virus in culture; assay type: cell-based, Staphylococcus aureus; settings: for MIC: 24 h; for Change of MIC / resistance of S. aureus 5812R compared to parent strain S. aureus FDA209P: ratio of MIC for 5812R and FDA209P; for Cross-resistance of S. aureus 5812R: susceptibility testing of gausemycin A-resistant strain
Procedure: (§1) Minimal inhibitory concentration (MIC) was determined as previously described in Fuchs et al. ([2000]), following the Clinical and Laboratory Standards Institute (CLSI) guidelines for broth microdilution MIC assay. The bacteria were incubated in a 96-well microtiter plate (Eppendorf, Germany) containing 90 μL of inoculum prepared in growth media at 10^6 CFU/ml with 10 μL of twofold dilutions of the antibiotics. The results were evaluated after 24 h of cultivation at 37 °C. The bacterial growth was assessed by scanning the absorbance data at 600 nm obtained by spectrophotometer (Multiscan GO, Thermo Fisher Scientific, US).

S. aureus FDA209P [2] = assay: microbe, parasite or virus in culture; assay type: cell-based, Staphylococcus aureus; settings: broth microdilution (CLSI), 10^6 CFU/ml, 24 h, 37 °C, absorbance at 600 nm
Procedure: as §1

S. aureus FDA209P [3] = assay: Serial passaging in increasing concentrations of antimicrobials; assay type: cell-based, Staphylococcus aureus; settings: for The highest concentration of antibiotic allowing growth: Mueller-Hinton II broth (CaCl2 50 mg/L), 37 °C, 24 h
Procedure: Gausemycin A-resistant variant was obtained by serial passaging as described previously (Pollard et al., [2012]). Isolated colonies of S. aureus FDA209P were inoculated into Mueller-Hinton II broth (CaCl2 50 mg/L) containing twofold dilutions of gausemycin A. The cultures were incubated at 37 °C with aeration for 24 h. After incubation, bacterial cells growing at the highest concentration of gausemycin A (below the MIC) were harvested and used for the next passage. The process was repeated for 20 passages. The dynamic of the developing resistance to gausemycin A was evaluated in comparison with daptomycin and ramoplanin. The experiments were performed in two independent series on separate days with three technical replicates each.

S. aureus 5812R [4] = assay: microbe, parasite or virus in culture; assay type: cell-based, Staphylococcus aureus; settings: 24 h; for MIC: Staphylococcus aureus, 5812R, read-out: MIC alone
Procedure: The effect of gausemycin A in combination with other antibiotics was evaluated using the checkerboard technique with modifications (Nwabor et al., [2021]). Briefly, 80 μL of diluted bacterial suspension (10^6 CFU/mL) was added to wells containing 10 μL of sub-inhibitory concentrations of gausemycin A and 10 μL of sub-inhibitory concentrations of conventional antibiotics. The plates were incubated for 24 h at 37°C. The effects of the antimicrobial combination were defined according to the fractional inhibitory concentration index (FICI). The ΣFICs were calculated as follows:
where FIC A is the MIC of drug A in the combination/MIC of drug A alone; and FIC B is the MIC of drug B in the combination/MIC of drug B alone. The result was interpreted as FIC ≤ 0.5 = Synergism, FIC > 0.5 to 1 = additivity, FIC >1 to 2 = indifference, and FIC >2 antagonism.

[5] = test system: biofilm-embedded staphylococcal cells; settings: ref Vasilchenko et al., 2020; cited from earlier work
Text: These lipoglycopeptides were firstly described in 2016 (Lapchinskaya et al., [2016]), and consequently named gausemycins A and B (Tyurin et al., [2021]). Gausemycin A is a macrocyclic peptide containing 14 amino acids, where tyrosine is glycosylated with arabinose, which makes gausemycin A unique among natural peptide antibiotics (Tyurin et al., [2021]). The closest structurally related compounds are depsipeptides (daptomycin, taromycins, and cadazides) and cyclopeptides ( ...

[6] = S. aureus 5812R, broth microdilution (CLSI), 10^6 CFU/ml, 37 °C, absorbance at 600 nm
[7] = Staphylococcus aureus, read-out: MIC

Compound: Nisin (ITSISLCTPGCKTGALMGCNMKTATCHCSIHVSK; not fully specified (some residues, bridges); cysteine pairing not given here; UniProt P13068 24-57, looked up)
- MIC (S. aureus 5812R [1]; [6]): 7.8 µg/mL
- Change of MIC / resistance of S. aureus 5812R compared to parent strain S. aureus FDA209P (S. aureus 5812R [1]): did not differ
- Cross-resistance of S. aureus 5812R (S. aureus 5812R [1]): absent
- MIC (S. aureus FDA209P [2]): 7.8 µg/mL

Compound: Ramoplanin
- MIC (S. aureus 5812R [1]; [6]): 3.12 µg/mL
- Change of MIC / resistance of S. aureus 5812R compared to parent strain S. aureus FDA209P (S. aureus 5812R [1]): did not differ
- Cross-resistance of S. aureus 5812R (S. aureus 5812R [1]): absent
- MIC (S. aureus FDA209P [2]): 3.12 µg/mL
- The highest concentration of antibiotic allowing growth (S. aureus FDA209P [3]; passage 1): 3.12 µg/mL
- The highest concentration of antibiotic allowing growth (S. aureus FDA209P [3]; passage 2): 6.25 µg/mL
- The highest concentration of antibiotic allowing growth (S. aureus FDA209P [3]; passage 3): 6.25 µg/mL
- The highest concentration of antibiotic allowing growth (S. aureus FDA209P [3]; passage 4): 12.5 µg/mL
- The highest concentration of antibiotic allowing growth (S. aureus FDA209P [3]; passage 5): 50 µg/mL
- The highest concentration of antibiotic allowing growth (S. aureus FDA209P [3]; passage 6): 50 µg/mL
- The highest concentration of antibiotic allowing growth (S. aureus FDA209P [3]; passage 7): 50 µg/mL
- The highest concentration of antibiotic allowing growth (S. aureus FDA209P [3]; passage 8): 100 µg/mL
- The highest concentration of antibiotic allowing growth (S. aureus FDA209P [3]; passage 9): 100 µg/mL
- The highest concentration of antibiotic allowing growth (S. aureus FDA209P [3]; passage 10): 100 µg/mL
- The highest concentration of antibiotic allowing growth (S. aureus FDA209P [3]; passage 11): >100 µg/mL
- The highest concentration of antibiotic allowing growth (S. aureus FDA209P [3]; passage 12): >100 µg/mL
- The highest concentration of antibiotic allowing growth (S. aureus FDA209P [3]; passage 13): >100 µg/mL
- The highest concentration of antibiotic allowing growth (S. aureus FDA209P [3]; passage 14): >100 µg/mL
- The highest concentration of antibiotic allowing growth (S. aureus FDA209P [3]; passage 15): >100 µg/mL
- The highest concentration of antibiotic allowing growth (S. aureus FDA209P [3]; passage 16): >100 µg/mL
- The highest concentration of antibiotic allowing growth (S. aureus FDA209P [3]; passage 17): >100 µg/mL
- The highest concentration of antibiotic allowing growth (S. aureus FDA209P [3]; passage 18): >100 µg/mL
- The highest concentration of antibiotic allowing growth (S. aureus FDA209P [3]; passage 19): >100 µg/mL
- The highest concentration of antibiotic allowing growth (S. aureus FDA209P [3]; passage 20): >100 µg/mL
- Number of passages within which resistance was formed (S. aureus FDA209P [3]; serial passages with sub-inhibitory concentrations): ≤ 10 passages

Compound: CCCCCCCCCC(=O)N[C@@H](Cc1c[nH]c2ccccc12)C(=O)N[C@H](CC(N)=O)C(=O)N[C@@H](CC(=O)O)C(=O)N[C@@H]1C(=O)NCC(=O)N[C@@H](CCCN)C(=O)N[C@@H](CC(=O)O)C(=O)N[C@H](C)C(=O)N[C@@H](CC(=O)O)C(=O)NCC(=O)N[C@H](CO)C(=O)N[C@@H]([C@H](C)CC(=O)O)C(=O)N[C@@H](CC(=O)c2ccccc2N)C(=O)O[C@@H]1C [Daptomycin]
- MIC (S. aureus 5812R [1]; [6]): 5.0 µg/mL (≈ 3.09 µM)
- Change of MIC / resistance of S. aureus 5812R compared to parent strain S. aureus FDA209P (S. aureus 5812R [1]): 4 fold
- Cross-resistance of S. aureus 5812R (S. aureus 5812R [1]): cross-resistance
- MIC (S. aureus FDA209P [2]): 1.25 µg/mL (≈ 0.771 µM)
- MIC alone (S. aureus 5812R [4]; S. aureus 5812R, single antibiotic, 10^6 CFU/mL, 37 °C): 5.0 µg/mL
- The highest concentration of antibiotic allowing growth (S. aureus FDA209P [3]; passage 1): 1.25 µg/mL
- The highest concentration of antibiotic allowing growth (S. aureus FDA209P [3]; passage 2): 1.25 µg/mL
- The highest concentration of antibiotic allowing growth (S. aureus FDA209P [3]; passage 3): 1.25 µg/mL
- The highest concentration of antibiotic allowing growth (S. aureus FDA209P [3]; passage 4): 1.25 µg/mL
- The highest concentration of antibiotic allowing growth (S. aureus FDA209P [3]; passage 5): 1.25 µg/mL
- The highest concentration of antibiotic allowing growth (S. aureus FDA209P [3]; passage 6): 1.25 µg/mL
- The highest concentration of antibiotic allowing growth (S. aureus FDA209P [3]; passage 7): 1.25 µg/mL
- The highest concentration of antibiotic allowing growth (S. aureus FDA209P [3]; passage 8): 1.25 µg/mL
- The highest concentration of antibiotic allowing growth (S. aureus FDA209P [3]; passage 9): 1.25 µg/mL
- The highest concentration of antibiotic allowing growth (S. aureus FDA209P [3]; passage 10): 1.25 µg/mL
- The highest concentration of antibiotic allowing growth (S. aureus FDA209P [3]; passage 11): 1.25 µg/mL
- The highest concentration of antibiotic allowing growth (S. aureus FDA209P [3]; passage 12): 2.50 µg/mL
- The highest concentration of antibiotic allowing growth (S. aureus FDA209P [3]; passage 13): 2.50 µg/mL
- The highest concentration of antibiotic allowing growth (S. aureus FDA209P [3]; passage 14): 2.50 µg/mL
- The highest concentration of antibiotic allowing growth (S. aureus FDA209P [3]; passage 15): 2.50 µg/mL
- The highest concentration of antibiotic allowing growth (S. aureus FDA209P [3]; passage 16): 2.50 µg/mL
- The highest concentration of antibiotic allowing growth (S. aureus FDA209P [3]; passage 17): 2.50 µg/mL
- The highest concentration of antibiotic allowing growth (S. aureus FDA209P [3]; passage 18): 2.50 µg/mL
- The highest concentration of antibiotic allowing growth (S. aureus FDA209P [3]; passage 19): 2.50 µg/mL
- The highest concentration of antibiotic allowing growth (S. aureus FDA209P [3]; passage 20): 5.0 µg/mL
- Inhibition of biofilm-embedded staphylococcal cells [5]: inactive

Compound: CN(C)[C@@H]1C(O)=C(C(N)=O)C(=O)[C@@]2(O)C(O)=C3C(=O)c4c(O)cccc4[C@@](C)(O)[C@H]3C[C@@H]12 [Tetracycline]
- MIC (S. aureus 5812R [1]; Staphylococcus aureus, 5812R): 0.94 µg/mL (≈ 2.12 µM)
- Cross-resistance of S. aureus 5812R (S. aureus 5812R [1]): cross-resistance
- MIC (S. aureus FDA209P [2]; [7]): 0.47 µg/mL (≈ 1.06 µM)

Compound: CN[C@H](CC(C)C)C(=O)N[C@H]1C(=O)N[C@@H](CC(N)=O)C(=O)N[C@H]2C(=O)N[C@H]3C(=O)N[C@H](C(=O)N[C@H](C(=O)O)c4cc(O)cc(O)c4-c4cc3ccc4O)[C@H](O)c3ccc(c(Cl)c3)Oc3cc2cc(c3O[C@@H]2O[C@H](CO)[C@@H](O)[C@H](O)[C@H]2O[C@H]2C[C@](C)(N)[C@H](O)[C@H](C)O2)Oc2ccc(cc2Cl)[C@H]1O [Vancomycin]
- MIC (S. aureus 5812R [1]; [6]): 0.78 µg/mL (≈ 0.538 µM)
- Change of MIC / resistance of S. aureus 5812R compared to parent strain S. aureus FDA209P (S. aureus 5812R [1]): did not differ
- Cross-resistance of S. aureus 5812R (S. aureus 5812R [1]): absent
- MIC (S. aureus FDA209P [2]): 0.78 µg/mL (≈ 0.538 µM)

Compound: O=C(O)c1cn(C2CC2)c2cc(N3CCNCC3)c(F)cc2c1=O [Ciprofloxacin]
- MIC of Cip in combination (S. aureus 5812R [4]; S. aureus 5812R, combination Cip+ GauA, checkerboard, 37 °C): 0.18 µg/mL

Compound: Cc1nnc(SCC2=C(C(=O)O)N3C(=O)[C@@H](NC(=O)Cn4cnnn4)[C@H]3SC2)s1 [Cefazolin]
- MIC (S. aureus 5812R [1]; Staphylococcus aureus, 5812R): 0.4 µg/mL (≈ 0.88 µM)
- Cross-resistance of S. aureus 5812R (S. aureus 5812R [1]): cross-resistance
- MIC (S. aureus FDA209P [2]; [7]): 0.2 µg/mL (≈ 0.44 µM)

Compound: CNC(C)C1CCC(N)C(OC2C(N)CC(N)C(OC3OCC(C)(O)C(NC)C3O)C2O)O1 (stereo not shown) [Gentamicin]
- MIC (S. aureus 5812R [1]; Staphylococcus aureus, 5812R): 1.56 µg/mL (≈ 3.27 µM)
- Change of MIC / resistance of S. aureus 5812R compared to parent strain S. aureus FDA209P (S. aureus 5812R [1]): 7.8 fold
- Cross-resistance of S. aureus 5812R (S. aureus 5812R [1]): cross-resistance
- MIC (S. aureus FDA209P [2]; [7]): 0.2 µg/mL (≈ 0.419 µM)
- MIC of Gen in combination (S. aureus 5812R [4]; S. aureus 5812R, combination Gen+ GauA, checkerboard, 37 °C): 0.75 µg/mL
- MIC (S. aureus 5812R [4]): 1.56 µg/mL

Compound: CC1(C)S[C@@H]2[C@H](NC(=O)[C@H](N)c3ccccc3)C(=O)N2[C@H]1C(=O)O [Ampicillin]
- MIC (S. aureus 5812R [1]; Staphylococcus aureus, 5812R): 1.25 µg/mL (≈ 3.58 µM)
- MIC (S. aureus FDA209P [2]; [7]): 0.16 µg/mL (≈ 0.458 µM)
- MIC of Amp in combination (S. aureus 5812R [4]; S. aureus 5812R, combination Amp + GauA, checkerboard, 37 °C): 0.63 µg/mL
- MIC (S. aureus 5812R [4]): 1.25 µg/mL
